The Kinase Knowledgebase extract (Sharma et al. 2016)

How the values were obtained:
PIK3CB (Human) = PIK3CB (Human) (UniProt P42338); assay: Inhibition of PIK3CB Kinase Activity
PIK3CA (human) = PIK3CA (human) (UniProt P42336); assay: Inhibition of PIK3CA Kinase Activity
PIK3CD (Human) = PIK3CD (Human) (UniProt O00329); assay: Inhibition of PIK3CD Kinase Activity
PIK3CD (Human), sequence (O00329 whole entry, looked up): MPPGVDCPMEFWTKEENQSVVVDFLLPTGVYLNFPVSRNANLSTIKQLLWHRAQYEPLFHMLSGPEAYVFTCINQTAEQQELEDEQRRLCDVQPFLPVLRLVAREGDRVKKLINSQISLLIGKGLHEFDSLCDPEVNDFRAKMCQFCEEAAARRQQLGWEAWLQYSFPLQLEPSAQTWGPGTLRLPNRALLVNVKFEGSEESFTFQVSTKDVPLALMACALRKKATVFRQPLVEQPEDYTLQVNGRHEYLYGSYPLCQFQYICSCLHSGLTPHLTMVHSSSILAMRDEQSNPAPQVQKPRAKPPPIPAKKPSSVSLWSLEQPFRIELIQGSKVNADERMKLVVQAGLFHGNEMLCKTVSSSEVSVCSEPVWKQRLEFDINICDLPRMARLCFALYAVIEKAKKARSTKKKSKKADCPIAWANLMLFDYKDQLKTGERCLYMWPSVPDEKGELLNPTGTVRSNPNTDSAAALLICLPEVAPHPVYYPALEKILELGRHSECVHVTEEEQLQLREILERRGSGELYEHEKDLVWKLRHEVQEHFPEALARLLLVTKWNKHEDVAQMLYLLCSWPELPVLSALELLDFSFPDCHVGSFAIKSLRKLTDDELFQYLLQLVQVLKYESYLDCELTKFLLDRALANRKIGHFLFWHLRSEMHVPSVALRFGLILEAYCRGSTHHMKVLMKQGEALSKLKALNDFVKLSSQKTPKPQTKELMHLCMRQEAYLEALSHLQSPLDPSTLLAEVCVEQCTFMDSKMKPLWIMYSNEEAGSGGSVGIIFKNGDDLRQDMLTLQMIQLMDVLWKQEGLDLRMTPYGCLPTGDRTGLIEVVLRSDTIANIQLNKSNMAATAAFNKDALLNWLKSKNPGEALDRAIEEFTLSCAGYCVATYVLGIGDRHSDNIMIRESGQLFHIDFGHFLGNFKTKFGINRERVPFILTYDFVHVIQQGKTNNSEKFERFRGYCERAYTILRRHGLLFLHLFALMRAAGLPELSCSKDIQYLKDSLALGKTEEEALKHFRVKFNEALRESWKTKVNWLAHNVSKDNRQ

PIK3CA (human), sequence (P42336 whole entry, looked up): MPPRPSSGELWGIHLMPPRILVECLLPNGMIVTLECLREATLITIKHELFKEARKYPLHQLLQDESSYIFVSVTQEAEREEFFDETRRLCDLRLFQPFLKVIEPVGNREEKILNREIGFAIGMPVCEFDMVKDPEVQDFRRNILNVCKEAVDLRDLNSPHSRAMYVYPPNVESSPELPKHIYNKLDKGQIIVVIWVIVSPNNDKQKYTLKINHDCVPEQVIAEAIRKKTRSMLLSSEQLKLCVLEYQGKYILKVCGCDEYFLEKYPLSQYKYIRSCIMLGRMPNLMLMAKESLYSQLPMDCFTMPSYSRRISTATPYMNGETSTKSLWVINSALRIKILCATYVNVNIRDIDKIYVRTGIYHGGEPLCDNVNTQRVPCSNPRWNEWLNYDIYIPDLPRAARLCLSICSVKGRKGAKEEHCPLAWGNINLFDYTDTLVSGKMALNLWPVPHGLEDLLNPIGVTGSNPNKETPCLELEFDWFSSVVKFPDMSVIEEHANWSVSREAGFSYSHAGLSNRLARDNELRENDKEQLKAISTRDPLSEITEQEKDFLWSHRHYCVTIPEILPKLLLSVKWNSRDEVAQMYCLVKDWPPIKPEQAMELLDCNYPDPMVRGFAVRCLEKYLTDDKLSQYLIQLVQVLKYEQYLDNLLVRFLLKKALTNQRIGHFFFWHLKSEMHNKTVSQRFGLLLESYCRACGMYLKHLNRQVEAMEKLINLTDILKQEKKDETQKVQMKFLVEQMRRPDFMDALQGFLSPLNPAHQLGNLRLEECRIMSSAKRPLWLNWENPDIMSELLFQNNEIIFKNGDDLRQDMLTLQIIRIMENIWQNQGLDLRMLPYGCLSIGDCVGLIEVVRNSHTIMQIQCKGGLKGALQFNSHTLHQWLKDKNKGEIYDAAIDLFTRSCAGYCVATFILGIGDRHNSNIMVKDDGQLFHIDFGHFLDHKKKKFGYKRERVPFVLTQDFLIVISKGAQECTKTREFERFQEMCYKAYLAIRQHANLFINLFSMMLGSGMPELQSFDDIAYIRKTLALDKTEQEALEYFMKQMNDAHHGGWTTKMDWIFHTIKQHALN
PIK3CB (Human), sequence (P42338 whole entry, looked up): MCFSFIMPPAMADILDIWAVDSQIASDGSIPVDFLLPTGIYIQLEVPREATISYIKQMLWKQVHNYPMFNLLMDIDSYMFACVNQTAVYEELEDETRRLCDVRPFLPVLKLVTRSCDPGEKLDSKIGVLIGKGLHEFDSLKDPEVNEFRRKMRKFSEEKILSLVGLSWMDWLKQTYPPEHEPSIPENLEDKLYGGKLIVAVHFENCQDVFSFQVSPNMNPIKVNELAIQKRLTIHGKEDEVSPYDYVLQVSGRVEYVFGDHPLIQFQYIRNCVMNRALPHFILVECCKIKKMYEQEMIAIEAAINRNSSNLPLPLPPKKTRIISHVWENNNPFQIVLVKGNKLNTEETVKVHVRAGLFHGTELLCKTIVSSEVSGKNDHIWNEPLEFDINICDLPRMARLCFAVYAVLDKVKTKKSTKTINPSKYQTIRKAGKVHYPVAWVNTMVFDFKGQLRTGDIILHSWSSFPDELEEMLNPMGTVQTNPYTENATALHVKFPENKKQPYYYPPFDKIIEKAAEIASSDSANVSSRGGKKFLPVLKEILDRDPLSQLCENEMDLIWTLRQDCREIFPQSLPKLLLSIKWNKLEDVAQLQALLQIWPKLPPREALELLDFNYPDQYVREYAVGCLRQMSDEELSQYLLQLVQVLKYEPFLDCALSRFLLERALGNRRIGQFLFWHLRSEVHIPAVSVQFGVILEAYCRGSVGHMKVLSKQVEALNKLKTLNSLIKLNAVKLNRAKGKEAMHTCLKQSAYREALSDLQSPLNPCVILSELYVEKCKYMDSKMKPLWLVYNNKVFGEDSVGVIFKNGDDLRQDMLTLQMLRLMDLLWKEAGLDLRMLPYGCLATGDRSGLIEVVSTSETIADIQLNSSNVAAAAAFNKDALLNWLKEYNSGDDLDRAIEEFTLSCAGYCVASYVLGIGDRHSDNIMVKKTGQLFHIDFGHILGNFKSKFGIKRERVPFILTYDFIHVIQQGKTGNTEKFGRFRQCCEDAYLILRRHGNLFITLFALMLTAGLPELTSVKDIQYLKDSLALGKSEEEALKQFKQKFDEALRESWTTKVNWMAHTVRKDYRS

CN(N=Cc1cnn2ccc(C#N)cc12)S(=O)(=O)c1cc([N+](=O)[O-])ccc1Cl
IC50 (PIK3CB (Human)): 94 nM

CCCCCC.Cc1ccc([N+](=O)[O-])cc1S(=O)(=O)N(C)N=Cc1cnn2ccc(I)cc12
IC50 (PIK3CA (human)): 23 nM
IC50 (PIK3CB (Human)): 720 nM
IC50 (PIK3CD (Human)): 240 nM

CN(N=Cc1cnn2ccc(C#N)cc12)S(=O)(=O)c1cc([N+](=O)[O-])ccc1CCc1ccccn1
IC50 (PIK3CA (human)): 5.8 nM
IC50 (PIK3CB (Human)): 5600 nM
IC50 (PIK3CD (Human)): 200 nM

Cc1ccc([N+](=O)[O-])cc1S(=O)(=O)c1nnc(-c2cnn3ccc(Br)cc23)o1
IC50 (PIK3CA (human)): 84 nM
IC50 (PIK3CD (Human)): 120 nM

Cc1ccc([N+](=O)[O-])cc1S(=O)(=O)N(C)N=Cc1cnn2ccccc12
IC50 (PIK3CB (Human)): > 10000 nM
